Measurements: patent publication US20210145795A1 (priority 2018, published 2021)
pIC50: −log10 of the molar value. “Also recorded” adds a separate entry of the source. Read-outs that look alike come from different tables or passages of the source.

Columns and labels:
[1] = system: USSR H1N1 virus; test: microbe, parasite or virus in culture; assay type: cell-based, influenza A virus
[2] = system: USSR H1N1 virus; test: microbe, parasite or virus in culture; assay type: cell-based, influenza A virus; remark: listed apart in the source
[3] = system: extracellular Ca^2+ influx; test: Fluo-8 intracellular Ca2+ monitoring assay (NPTr cells; TG also in other cell types); assay type: cell-based, pig
[4] = system: NPTr cells
[5] = system: pdm H1N1 virus; assay type: cell-based, influenza A virus
[6] = system: USSR H1N1 virus; assay type: cell-based, influenza A virus
[7] = system: USSR H1N1 virus; assay type: cell-based, influenza A virus; remark: listed apart in the source
[8] = system: RSV (A2 strain, ATCC VR-1540); test: RSV production from primed HEp2 cells (immuno-detection of RSV); assay type: cell-based, human respiratory syncytial virus
Procedure: (§1) Spun supernatants were collected to infect HEp2 cells for 24 h for immuno-detection of RSV. TG doses used to prime HEp2 cells were non-toxic. 30 min TG treated cells were rinsed, cultured overnight and subjected to cell viability assays (CellTiter-Glo® Luminescent Cell Viability Assay kit, Promega. Results are shown in FIG. 22.
Spun supernatants from infected samples were collected to infect HEp2 cells for 24 h for immuno-detection of RSV.
In further experiments, HEp2 cells were first infected with RSV at 0.1 MOI for 24 or 48 h followed by priming with TG or DMSO control for 30 min. Fresh media were used to replace TG containing media of 24 h infected cells; and supernatants collected earlier from 48 h infected cells were used to replace TG containing media of 48 h infected cells. All samples were infected for total period 72 h. Spun supernatants were collected to infect HEp2 cells for 24 h for RSV immuno-detection. DMSO controls were based on combined control supernatants from 24 and 48 h time points.

[9] = CellTiter-Glo luminescent cell viability assay, HEp2 cells; assay type: cell-based; details: human, HEp-2 cells
Procedure: as §1

[10] = system: DDIT3, HSPA5 and HSP90B1; assay type: cell-based, pig; details: NPTr cells
[11] = system: RIG-I, OAS1 and PKR; assay type: cell-based, pig
[12] = system: viral NP and M1 protein; assay type: cell-based, influenza A virus; details: 0.5 μM TG (NPTr, myoblasts) or 0.005 μM TG (NHBE) 30 min, USSR H1N1, 24 h
[13] = system: NHBE cells; details: TG concentrations used for priming
[14] = system: influenza A virus; details: MDCK cells, 0.001 μM TG over 48 h of infection; cited from earlier work
[15] = in vitro; details: human
[16] = in vitro; details: pig
[17] = system: viral M-gene; assay type: cell-based, influenza A virus; details: NPTr cells

CC1=C2CC[C@@H](C)[C@H]2[C@H]2[C@@H](CC1)C2(C)C [(+)-ledene]
progeny virus output [1]: dramatic reduction in progeny virus output; also recorded: reduced progeny virus output
USSR H1N1 virus production [2]: reduced USSR H1N1 virus production like that of TG

Cc1nnsc1C(=O)Nc1ccc(-n2nc(C(F)(F)F)cc2C(F)(F)F)cc1 [BTP2, reference compound]
progeny virus release [2]: small increase in progeny virus release

CC(=O)C1=C(O)[C@@H]2[C@H]3c4c[nH]c5cccc(c45)C[C@H]3C(C)(C)N2C1=O [CPA, Cyclopiazonic acid]
concentration from which Ca^2+ influx was detected [3]: ≥ 10 µM
reduction in ATP production ([4]; 5 μM CPA 30 min, 24 h incubation): 8.3%

COc1ccc(OC)c(-c2ccc(NC(=O)c3ccncc3F)cc2)c1 [Synta66, reference compound]
progeny virus release [2]: small increase in progeny virus release

C/C=C(/C)C(=O)O[C@H]1C(C)=C2[C@H]([C@@H]1OC(=O)CCCCCCC)[C@@](C)(OC(C)=O)C[C@H](OC(=O)CCC)[C@@]1(O)[C@H]2OC(=O)[C@@]1(C)O [TG, thapsigargin]
virus output [1]: marked reduction in virus output
pIC50 ([1]; Influenza A virus, H1N1, NHBE, read-out: USSR virus inhibitory concentration [IC50]): 8.41
progeny virus output ([1]; NHBE cells, 5 nM TG for 30 min): dramatic reduction in progeny virus output
selectivity index (CC50/IC50) ([1]; NHBE cells, USSR H1N1): 8572.89
duration of the antiviral state [2]: at least 24 h
virus output [2]: marked reduction in virus output
pIC50 ([2]; Influenza A virus, H1N1, read-out: IC50 (50% reduction of progeny virus)): 8.15
virus reduction ([2]; NPTr cells pre-primed with 0.1 μM TG for 30 min): 82%
virus reduction ([2]; NPTr cells pre-primed with 0.5 μM TG for 30 min): 93%
selectivity index (CC50/IC50) ([2]; NPTr cells, USSR H1N1): 7952.21
virus production, TG before vs after an initial infection period of 6 h ([5]; NPTr (0.5 μM, pdm H1N1), NHBE (0.01 μM, USSR H1N1), myoblasts (0.5 μM, USSR H1N1), 30 min): comparable reduction in virus production
duration of the antiviral state [6]: at least 24 h
duration of the antiviral state [7]: at least 24 h
virus output [7]: marked reduction in virus output
duration of sustained anti-viral effect on RSV after priming ([8]; HEp2 cells, 30 min priming): over 48 h
RSV production, priming during infection ([8]; HEp2 cells, TG 30 min at 48 h post-infection): rapidly effective in blocking virus production
RSV production ([8]; HEp2 cells, TG at non-toxic levels 30 min before infection, RSV 0.1 MOI 3 days): blocks RSV production
selectivity index ([8]; HEp-2 cells, 3 d infection period): 1346.499
pIC50 ([8]; human respiratory syncytial virus, 72 h, HEp-2 cells, 3 d infection period): 7.17
CC50 [9]: 90 µM
Ca^2+ influx ([3]; brief TG exposure (10 min), primary porcine myoblasts, PTECs and NHBE cells, dependent on extracellular Ca^2+): modest Ca^2+ influx
expression of ER stress associated genes (DDIT3, HSPA5 and HSP90B1) ([10]; TG at non-toxic levels, porcine myoblasts and NHBE cells, dose-dependent): consistently elevated ER stress associated genes
expression of type I IFN associated genes (RIG-I, OAS1) in response to infection ([11]; TG priming before or during infection, different cell types): consistently increased the expression of type I IFN associated genes
viral NP and M1 protein [12]: no or only small reduction in viral NP and M1 protein
cytotoxic effect on cell viability (ATP production, caspase 3/7 activity) [13]: no cytotoxic effect on cell viability
cytotoxic effect on cell viability (ATP production, caspase 3/7 activity) ([4]; NPTr cells, TG concentrations used for priming): no cytotoxic effect on cell viability
progeny influenza virus output [14]: increase progeny influenza virus output
CC50 [15]: 33.5 µM
CC50 [16]: 56.6 µM

C[C@@H]1CC[C@H]2[C@@H](C)C(=O)O[C@@H]3O[C@@]4(C)CC[C@@H]1[C@]32OO4 [artemisinin, reference compound]
USSR H1N1 virus production [2]: reduced USSR H1N1 virus production like that of TG
progeny viral output [2]: reduces progeny viral output
progeny viral output [5]: reduces progeny viral output
viral M-gene expression ([17]; artemisinin 0.1 μM and 1.0 μM): without significant alteration in viral M-gene expression

C=C1C(=O)O[C@@H]2[C@H]3C(C)=CC(=O)C3=C(C)CC[C@@H]12 [dehydroleucodine]
progeny virus output [1]: reduced progeny virus output

CC1=C2[C@H](/C=C(\C)C(=O)O)CC[C@@H](C)[C@H]2CC1 [valerenic acid]
USSR H1N1 virus production [2]: reduced USSR H1N1 virus production like that of TG

Tunicamycin [reference compound]
virus production [2]: only slightly reduced virus production
virus production relative to correspondingly infected TG primed cells ([2]; NPTr cells, USSR H1N1, tunicamycin primed vs TG 0.5 μM): 7.5 times
virus production relative to correspondingly infected TG primed cells ([5]; NPTr cells, pdm H1N1, tunicamycin primed vs TG 0.5 μM): 2.8 times
Ca^2+ influx ([3]; tunicamycin at non-toxic doses): did not induce Ca^2+ influx
induction of ER stress associated genes, higher than by TG ([10]; tunicamycin 1.0 μg/ml vs TG 0.5 μM): 3 to 8.2 fold
expression of type I IFN associated genes (RIG-I, OAS1 and PKR) in response to infection ([11]; NPTr cells, tunicamycin primed): little change in the expression of type I IFN associated genes
viral M-gene expression ([17]; tunicamycin primed): without reduction in viral M-gene expression
cell viability ([4]; NPTr cells, tunicamycin 30 min, non-toxic doses): did not affect cell viability

dehydroleucodine
USSR H1N1 virus production [2]: reduced USSR H1N1 virus production like that of TG
